The structures appear in SMILES notation.

Test [1] has as its system P. aeruginosa. As to the kind of experiment: gNO dose study, colony growth on agar plates. It counts as cell-based. As to the method: FIG. 7 depicts a Pseudomonas aeruginosa dosage curve for exposure to NO gas with bacteria grown on solid media. Relative percentages of growth of P. aeruginosa colony forming units (cfu) at 50, 80, 120 and 160 parts per million (ppm) of nitric oxide compared with growth of P. aeruginosa cfu in medical air (100%) are shown.
To study the effects of gaseous nitric oxide on potential pathogens, a custom gas exposure incubator was designed and validated for temperature, humidity, and gas concentrations, providing an environment that matches that of a microbiologic incubator, while enabling controlled exposure of precise concentrations of the gas. […] The gNO chamber allowed control and adjustment of following factors in all in vitro studies: gNO dose, total air flow, NO2 levels, O2 levels, CO2 levels, temperature, and humidity. For the initial pilot studies, two strains of bacterial pathogen were selected based on two proposed clinical applications of gNO for respiratory infections and topical application. P. aeruginosa is associated primarily with pulmonary disease, but may also be associated with skin infection such as in severe burns. S. aureus is associated with surface wound infections. Both of these micro-organisms were chosen for the pilot study.
The first step in the process of evaluating the direct effect of gNO on bacteria was to design a simple study to determine what dose, if any, would be an approximate lethal concentration level for microbes. Once an optimal dose was estimated, then a timing study would be conducted. For these initial studies, highly dense inoculums of P. aeruginosa and S. aureus suspensions (10^8 cfu/ml) were plated onto agar plates. These plates were then exposed to various concentrations of gNO in the exposure device in order to evaluate the effect on colony growth.

Test [2] has as its system collagenase mRNA. As to the kind of experiment: mRNA expression after gNO exposure. The note with it: 200 ppm gNO; 24 hours and 48 hours. It is filed as cell-based. From the text:
Witte M B, et al, (2002) Nitric oxide enhances […] wound healing in diabetes, Br J. Surg., 89:1594-601. Thus, Applicants believe that NO may upregulate expression of both collagenase (MMP-1) and gelatinase (MMP-2), which may be important in keeping the wound clean from necrotic tissue while not prolonging the inflammatory phase.

For `[N]=O` [gNO, nitric oxide], in test [1] (24 hours after gNO exposure, controls overgrew), the “colony size and number after transfer to a conventional incubator” value is “remained the same in size and number”. Moreover, the “time required to achieve the >90% reduction of colony formation” value in test [1] (gNO greater than 120 ppm, agar plates) was 8 to 12 h. In addition, the “reduction of colony formation” value in test [1] (gNO greater than 120 ppm, agar plates, compared with medical air) is reported as “greater than 90%”. In addition, the survival in test [1] (increasing gNO to 120 ppm, agar plates) is on record as 5-10%. Moreover, in test [2], the “expression of collagenase mRNA” value is given as “increased”.
